Assay results reported in PubChem BioAssay (NCI).
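Results reflect a 48-hour exposure of cells in 96-well plates to compound at five concentrations. At the TGI there is no net growth.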

Key:
Assay in all cases: NCI tumour cell line growth inhibition, 48 h
[1] = system: SF-539 CNS
[2] = system: HOP-92 NSCLC
[3] = system: SNB-75 CNS
[4] = system: CAKI-1 renal
[5] = system: RXF-631 renal
[6] = system: HOP-18 NSCLC
[7] = system: HCT-15 colon
[8] = system: UO-31 renal
[9] = system: LXFL 529 NSCLC
[10] = system: M19-MEL melanoma
[11] = system: IGROV1 ovarian
[12] = system: OVCAR-5 ovarian
[13] = system: DMS 273 small cell lung
[14] = system: MOLT-4 leukemia
[15] = system: SNB-19 CNS
[16] = system: OVCAR-4 ovarian
[17] = system: RXF 393 renal
[18] = system: NCI-H522 lung
[19] = system: NCI-H23 lung
[20] = system: NCI-H226 lung
[21] = system: KM20L2 colon
[22] = system: HCT-116 colon
[23] = system: CCRF-CEM leukemia
[24] = system: DMS 114 small cell lung
[25] = system: SK-MEL-28 melanoma
[26] = system: K-562 leukemia
[27] = system: COLO 205 colon
[28] = system: KM12 colon
[29] = system: SK-OV-3 ovarian
[30] = system: SK-MEL-5 melanoma
[31] = system: SF-295 CNS
[32] = system: HCC-2998 colon
[33] = system: OVCAR-8 ovarian
[34] = system: SNB-78 CNS
[35] = system: SK-MEL-2 melanoma
[36] = system: HT29 colon
[37] = system: SN12C renal
[38] = system: HL-60(TB) leukemia
[39] = system: SR leukemia
[40] = system: TK-10 renal
[41] = system: MALME-3M melanoma
[42] = system: UACC-257 melanoma
[43] = system: XF 498 CNS
[44] = system: NCI-H460 lung
[45] = system: SF-268 CNS
[46] = system: 786-0 renal
[47] = system: UACC-62 melanoma
[48] = system: EKVX NSCLC
[49] = system: OVCAR-3 ovarian
[50] = system: U251 CNS
[51] = system: A549 NSCLC
[52] = system: M14 melanoma
[53] = system: A498 renal
[54] = system: HOP-62 NSCLC
[55] = system: ACHN renal

Measured: TGI

CN(C)CC(/C(Cc1ccccc1)=N\NC(=O)C[n+]1ccccc1)c1ccccc1 (stereo not given)
> 100 µM: all assays above
